Like-named read-outs stand apart in the source and are kept apart here.
Assays:
Format in all cases: cell-based
NB4 leukemia cell line = test: MTS assay (CellTiter96 Aqueous One solution proliferation assay), NB4
Experimental: (§1) Compounds CPF203, CPF204, CPF194, CPF210, CPF211, CPF212, CPF218 and CPT2001 were each tested in leukaemic cell lines to assess their anti-cancer efficacy. The compounds were tested using the MTS assay reagents from Promega (CellTiter96 Aqueous One solution proliferation assay). The compounds were tested between 10 μM and 0.002 μM in four fold dilutions.
(§2) The cell lines employed are set out in Tables IA and IB below and are NB4, HL60, NB4R2, K562, KG1, and U937 leukemia cell lines.
(§3) Table IA gives the IC50±standard deviation value for each cell line and compound tested and for all the cell lines together, in μM. Included in Table IA below, as a comparative example, is corresponding cell line data for cladribine. Table IB gives the IC50 value for each cell line and compound tested. Included in Table IB below, as a comparative example, is corresponding cell line data for clofarabine.

leukaemic cell lines = test: MTS assay, all the cell lines together; conditions: for IC50: All lines, Table IA, read-out: IC50 ± standard deviation, all the cell lines together; for anti-leukaemic potency/activity (in words): data of Table IA
Experimental: as §1, §2, §3

U937 leukemia cell line = test: MTS assay (CellTiter96 Aqueous One solution proliferation assay), U937
Experimental: as §1, §2, §3

NB4R2 leukemia cell line = test: MTS assay (CellTiter96 Aqueous One solution proliferation assay), NB4R2; conditions: Table IA, read-out: IC50 ± standard deviation
Experimental: as §1, §2, §3

KG1 leukemia cell line = test: MTS assay (CellTiter96 Aqueous One solution proliferation assay), KG1; conditions: Table IA, read-out: IC50 ± standard deviation
Experimental: as §1, §2, §3

HL60 leukemia cell line = test: MTS assay (CellTiter96 Aqueous One solution proliferation assay), HL60; conditions: Table IA, read-out: IC50 ± standard deviation
Experimental: as §1, §2, §3

K562 leukemia cell line = test: MTS assay (CellTiter96 Aqueous One solution proliferation assay), K562; conditions: Table IA, read-out: IC50 ± standard deviation
Experimental: as §1, §2, §3

[1] = NB4, Table IA, read-out: IC50 ± standard deviation
[2] = U937, Table IA, read-out: IC50 ± standard deviation

| IC50 (NB4 leukemia cell line; [1]) [µM] | IC50 (leukaemic cell lines) [µM] | IC50 (U937 leukemia cell line; [2]) [µM] | IC50 (NB4R2 leukemia cell line) [µM] | IC50 (KG1 leukemia cell line) [µM] | IC50 (HL60 leukemia cell line) [µM] | IC50 (K562 leukemia cell line) [µM] | Compound | anti-leukaemic potency/activity (in words) (leukaemic cell lines) | IC50 (NB4 leukemia cell line) [µM] | anti-cancer activity compared to clofarabine (leukaemic cell lines; data of Table IB (NB4, U937)) | IC50 (U937 leukemia cell line; Homo sapiens, U-937) [µM] | IC50 (NB4 leukemia cell line; NB4, Table IB, read-out: IC50) [µM] | IC50 (U937 leukemia cell line; U937, Table IB, read-out: IC50) [µM] |
| --- | --- | --- | --- | --- | --- | --- | --- | --- | --- | --- | --- | --- | --- |
| 1.16 ± 0.04 | 2.64 ± 2.09 | 1.29 ± 0.91 | 2.28 ± 0.59 | 2.23 ± 0.69 | 6.23 ± 1.75 | – | 2-chloro-2′-deoxyadenosine-5′-[phenyl-(methoxy-L-alaninyl)]-phosphate [CPF203] | – | – | – | – | – | – |
| 0.23 ± 0.1 | 0.67 ± 0.7 | 0.08 ± 0.01 | 0.63 ± 0.04 | 0.67 ± 0.2 | 1.75 ± 0.89 | – | C[C@H](NP(=O)(OC[C@H]1O[C@@H](n2cnc3c(N)nc(Cl)nc32)C[C@@H]1O)Oc1ccccc1)C(=O)OCc1ccccc1 (stereo partly drawn) [CPF204, 2-chloro-2′-deoxyadenosine-5′-[phenyl-(benzoxy-L-alaninyl)]-phosphate] | – | – | – | – | – | – |
| 0.24 ± 0.11 | 1.04 ± 1.02 | 0.19 ± 0.09 | 1.03 ± 0.15 | 1.8 ± 0.72 | 0.65 ± 0.19 | 2.36 ± 1.57 | C[C@H](NP(=O)(OC[C@H]1O[C@@H](n2cnc3c(N)nc(Cl)nc32)C[C@@H]1O)Oc1cccc2ccccc12)C(=O)OCc1ccccc1 (stereo partly drawn) [CPF210, 2-chloro-2′-deoxyadenosine-5′-[1-naphthyl-(benzoxy-L-alaninyl)]-phosphate] | greater anti-leukaemic potency than the corresponding compound CPF203 | – | – | – | – | – |
| 0.43 ± 0.04 | 1.41 ± 1.09 | 0.28 ± 0.03 | 1.18 ± 0.21 | 2.63 ± 1.19 | 1.66 ± 0.24 | 2.28 ± 1.32 | C[C@H](NP(=O)(OC[C@H]1O[C@@H](n2cnc3c(N)nc(Cl)nc32)C[C@@H]1O)Oc1cccc2ccccc12)C(=O)OCc1ccccc1 (stereo partly drawn) [CPF211, 2-chloro-2′-deoxyadenosine-5′-[1-naphthyl-(benzoxy-L-alaninyl)]-phosphate] | – | – | – | – | – | – |
| 0.23 ± 0.04 | 1.75 ± 2.34 | 0.14 ± 0.15 | 1.01 ± 0.39 | 1.54 ± 0.44 | 1.78 ± 0.5 | 5.8 ± 3.6 | C[C@H](NP(=O)(OC[C@H]1O[C@@H](n2cnc3c(N)nc(Cl)nc32)C[C@@H]1O)Oc1cccc2ccccc12)C(=O)OCc1ccccc1 (stereo partly drawn) [CPF212, 2-chloro-2′-deoxyadenosine-5′-[1-naphthyl-(benzoxy-L-alaninyl)]-phosphate] | – | – | – | – | – | – |
| 0.27 ± 0.03 | 1.6 ± 1.47 | 0.55 ± 0.44 | 1.09 ± 0.04 | 1.56 ± 0.25 | 1.75 ± 0.76 | 4.41 ± 0.95 | C[C@H](NP(=O)(OC[C@H]1O[C@@H](n2cnc3c(N)nc(Cl)nc32)C[C@@H]1O)Oc1ccc(Cl)c2ccccc12)C(=O)OCc1ccccc1 (stereo partly drawn) [CPF218, 2-chloro-2′-deoxyadenosine-5′-[4-chloro-1-naphthyl-(benzoxy-L-alaninyl)]-phosphate] | – | – | – | – | – | – |
| – | – | – | – | – | – | – | C[C@@H](NP(=O)(OCC1OC(n2cnc3c(N)nc(Cl)nc32)C(F)C1O)Oc1ccccc1)C(=O)OCc1ccccc1 (stereo partly shown) [CPT2001] | – | 0.12 | enhanced anti-cancer activity compared to clofarabine | 0.08 | – | – |
| – | – | – | – | – | – | – | Nc1nc(Cl)nc2c1ncn2[C@@H]1O[C@H](CO)[C@@H](O)[C@@H]1F [Clofarabine, reference compound] | – | – | – | – | 0.2 | 0.26 |

| Compound | IC50 (NB4 leukemia cell line; [1]) [µM] | IC50 (leukaemic cell lines) [µM] | IC50 (U937 leukemia cell line; [2]) [µM] | IC50 (NB4R2 leukemia cell line) [µM] | IC50 (KG1 leukemia cell line) [µM] | IC50 (HL60 leukemia cell line) [µM] | IC50 (K562 leukemia cell line) [µM] | anti-leukaemic potency/activity (in words) (leukaemic cell lines) | IC50 (NB4 leukemia cell line) [µM] | anti-cancer activity compared to clofarabine (leukaemic cell lines; data of Table IB (NB4, U937)) | IC50 (U937 leukemia cell line; Homo sapiens, U-937) [µM] | IC50 (NB4 leukemia cell line; NB4, Table IB, read-out: IC50) [µM] | IC50 (U937 leukemia cell line; U937, Table IB, read-out: IC50) [µM] |
| --- | --- | --- | --- | --- | --- | --- | --- | --- | --- | --- | --- | --- | --- |
| C[C@H](NP(=O)(OC[C@H]1O[C@@H](n2cnc3c(Cl)nc(N)nc32)C[C@@H]1O)Oc1ccccc1)C(=O)OCc1ccccc1 (stereo partly drawn) [CPF194, 2-amino-6-chloropurine-2′-deoxyriboside-5′-[phenyl-(benzoxy-L-alaninyl)]-phosphate] | – | 2.64 ± 0.18 | – | – | 2.64 ± 0.18 | – | – | anti-leukaemic activity demonstrated | – | – | – | – | – |
| Nc1nc(Cl)nc2c1ncn2[C@H]1C[C@H](O)[C@@H](CO)O1 [Cladribine, reference compound] | 9.39 ± 4.25 | 7.21 ± 3.69 | 2.08 ± 2.75 | 7.81 ± 1.64 | 5.48 ± 1.86 | 10.3 ± 3.46 | – | – | – | – | – | – | – |

Reference: patent publication US8263575B2, “Phosphoramidate derivatives of nucleoside compounds for use in the treatment of cancer” (Nucana Biomed Limited, priority 2005, dated 2012)
